According to the supplement of paper PMC10307832:

How the values were obtained:
Test in all cases: relative viability (nuclei count vs DMSO), 5 days (fraction); higher = more cells survive
NCI-H1355 = system: NCI-H1355
Outline: (§1)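 Relative viability was taken as the ratio of nuclei in treated wells to nuclei in vehicle wells. Lung cancer cell lines in 1536-well plates received compounds by pin tool one day after seeding, either one drug alone or a fixed anchor-drug dose plus five library-drug doses (not always all listed) in √10 steps. Nuclei were counted on 4× images after 5 days of treatment, and values are medians of duplicate plates.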

NCI-H838 = system: NCI-H838
Outline: as §1

HARA = system: HARA
Outline: as §1

NCI-H2009 = system: NCI-H2009
Outline: as §1

SK-MES-1 = system: SK-MES-1
Outline: as §1

PC-14 = system: PC-14
Outline: as §1

COR-L 105 = system: COR-L 105
Outline: as §1

NCI-H1993 = system: NCI-H1993
Outline: as §1

EKVX = system: EKVX
Outline: as §1

NCI-H2170 = system: NCI-H2170
Outline: as §1

NCI-H1755 = system: NCI-H1755
Outline: as §1

NCI-H2347 = system: NCI-H2347
Outline: as §1

COR-L23 = system: COR-L23
Outline: as §1

NCI-H1734 = system: NCI-H1734
Outline: as §1

UMC-11 = system: UMC-11
Outline: as §1

NCI-H647 = system: NCI-H647
Outline: as §1

NCI-H1395 = system: NCI-H1395
Outline: as §1

HOP-62 = system: HOP-62
Outline: as §1

NCI-H2228 = system: NCI-H2228
Outline: as §1

HCC-15 = system: HCC-15
Outline: as §1

NCI-H358 = system: NCI-H358
Outline: as §1

NCI-H1793 = system: NCI-H1793
Outline: as §1

NC(=O)Nc1cc(-c2cccc(F)c2)sc1C(=O)N[C@H]1CCCNC1 [AZD7762] + CS(=O)(=O)N1CCN(Cc2cc3nc(-c4cccc5[nH]ncc45)nc(N4CCOCC4)c3s2)CC1 [Pictilisib] (partner 1 µM)
relative viability (NCI-H1355; first compound 0.01 µM): 0.405
relative viability (NCI-H1355; first compound 0.03162 µM): 0.428
relative viability (NCI-H1355; first compound 0.1 µM): 0.44
relative viability (NCI-H1355; first compound 0.3162 µM): 0.445
relative viability (NCI-H1355; first compound 1 µM): 0.391
relative viability (NCI-H838; first compound 0.01 µM): 0.544
relative viability (NCI-H838; first compound 0.03162 µM): 0.45
relative viability (NCI-H838; first compound 0.1 µM): 0.471
relative viability (NCI-H838; first compound 0.3162 µM): 0.53
relative viability (NCI-H838; first compound 1 µM): 0.25
relative viability (HARA; first compound 0.01 µM): 0.346
relative viability (HARA; first compound 0.03162 µM): 0.435
relative viability (HARA; first compound 0.1 µM): 0.353
relative viability (HARA; first compound 0.3162 µM): 0.412
relative viability (HARA; first compound 1 µM): 0.32
relative viability (NCI-H2009; first compound 0.01 µM): 0.867
relative viability (NCI-H2009; first compound 0.03162 µM): 0.865
relative viability (NCI-H2009; first compound 0.1 µM): 0.909
relative viability (NCI-H2009; first compound 0.3162 µM): 0.677
relative viability (NCI-H2009; first compound 1 µM): 0.321
relative viability (SK-MES-1; first compound 0.01 µM): 0.353
relative viability (SK-MES-1; first compound 0.03162 µM): 0.322
relative viability (SK-MES-1; first compound 0.1 µM): 0.358
relative viability (SK-MES-1; first compound 0.3162 µM): 0.331
relative viability (SK-MES-1; first compound 1 µM): 0.25
relative viability (PC-14; first compound 0.01 µM): 0.763
relative viability (PC-14; first compound 0.03162 µM): 0.795
relative viability (PC-14; first compound 0.1 µM): 0.67
relative viability (PC-14; first compound 0.3162 µM): 0.474
relative viability (PC-14; first compound 1 µM): 0.309
relative viability (COR-L 105; first compound 0.01 µM): 0.486
relative viability (COR-L 105; first compound 0.03162 µM): 0.365
relative viability (COR-L 105; first compound 0.1 µM): 0.31
relative viability (COR-L 105; first compound 0.3162 µM): 0.353
relative viability (COR-L 105; first compound 1 µM): 0.242
relative viability (NCI-H1993; first compound 0.01 µM): 0.823
relative viability (NCI-H1993; first compound 0.03162 µM): 0.925
relative viability (NCI-H1993; first compound 0.1 µM): 0.717
relative viability (NCI-H1993; first compound 0.3162 µM): 0.725
relative viability (NCI-H1993; first compound 1 µM): 0.704
relative viability (EKVX; first compound 0.01 µM): 0.459
relative viability (EKVX; first compound 0.03162 µM): 0.451
relative viability (EKVX; first compound 0.1 µM): 0.462
relative viability (EKVX; first compound 0.3162 µM): 0.327
relative viability (EKVX; first compound 1 µM): 0.276
relative viability (NCI-H2170; first compound 0.01 µM): 0.322
relative viability (NCI-H2170; first compound 0.03162 µM): 0.338
relative viability (NCI-H2170; first compound 0.1 µM): 0.326
relative viability (NCI-H2170; first compound 0.3162 µM): 0.292
relative viability (NCI-H2170; first compound 1 µM): 0.247
relative viability (NCI-H1755; first compound 0.01 µM): 0.471
relative viability (NCI-H1755; first compound 0.03162 µM): 0.469
relative viability (NCI-H1755; first compound 0.1 µM): 0.406
relative viability (NCI-H1755; first compound 0.3162 µM): 0.397
relative viability (NCI-H1755; first compound 1 µM): 0.241
relative viability (NCI-H2347; first compound 0.01 µM): 0.598
relative viability (NCI-H2347; first compound 0.03162 µM): 0.721
relative viability (NCI-H2347; first compound 0.1 µM): 0.623
relative viability (NCI-H2347; first compound 0.3162 µM): 0.788
relative viability (NCI-H2347; first compound 1 µM): 0.292
relative viability (COR-L23; first compound 0.01 µM): 0.743
relative viability (COR-L23; first compound 0.03162 µM): 0.86
relative viability (COR-L23; first compound 0.1 µM): 0.818
relative viability (COR-L23; first compound 0.3162 µM): 0.68
relative viability (COR-L23; first compound 1 µM): 0.288
relative viability (NCI-H1734; first compound 0.01 µM): 0.538
relative viability (NCI-H1734; first compound 0.03162 µM): 0.535
relative viability (NCI-H1734; first compound 0.1 µM): 0.524
relative viability (NCI-H1734; first compound 0.3162 µM): 0.384
relative viability (NCI-H1734; first compound 1 µM): 0.293
relative viability (UMC-11; first compound 0.01 µM): 0.753
relative viability (UMC-11; first compound 0.03162 µM): 0.768
relative viability (UMC-11; first compound 0.1 µM): 0.848
relative viability (UMC-11; first compound 0.3162 µM): 0.679
relative viability (UMC-11; first compound 1 µM): 0.393
relative viability (NCI-H647; first compound 0.03162 µM): 0.559
relative viability (NCI-H647; first compound 0.1 µM): 0.427
relative viability (NCI-H647; first compound 0.3162 µM): 0.375
relative viability (NCI-H647; first compound 1 µM): 0.16
relative viability (NCI-H1395; first compound 0.01 µM): 0.663
relative viability (NCI-H1395; first compound 0.03162 µM): 0.643
relative viability (NCI-H1395; first compound 0.1 µM): 0.674
relative viability (NCI-H1395; first compound 0.3162 µM): 0.514
relative viability (NCI-H1395; first compound 1 µM): 0.403
relative viability (HOP-62; first compound 0.01 µM): 0.501
relative viability (HOP-62; first compound 0.03162 µM): 0.801
relative viability (HOP-62; first compound 0.1 µM): 0.833
relative viability (HOP-62; first compound 0.3162 µM): 0.645
relative viability (HOP-62; first compound 1 µM): 0.268
relative viability (NCI-H2228; first compound 0.01 µM): 0.381
relative viability (NCI-H2228; first compound 0.03162 µM): 0.539
relative viability (NCI-H2228; first compound 0.1 µM): 0.396
relative viability (NCI-H2228; first compound 0.3162 µM): 0.21
relative viability (NCI-H2228; first compound 1 µM): 0.136
relative viability (HCC-15; first compound 0.01 µM): 0.713
relative viability (HCC-15; first compound 0.03162 µM): 0.792
relative viability (HCC-15; first compound 0.1 µM): 0.875
relative viability (HCC-15; first compound 0.3162 µM): 0.789
relative viability (HCC-15; first compound 1 µM): 0.824
relative viability (NCI-H358; first compound 0.01 µM): 0.363
relative viability (NCI-H358; first compound 0.03162 µM): 0.358
relative viability (NCI-H358; first compound 0.1 µM): 0.35
relative viability (NCI-H358; first compound 0.3162 µM): 0.325
relative viability (NCI-H358; first compound 1 µM): 0.267
relative viability (NCI-H1793; first compound 0.01 µM): 0.388
relative viability (NCI-H1793; first compound 0.03162 µM): 0.371
relative viability (NCI-H1793; first compound 0.1 µM): 0.336
relative viability (NCI-H1793; first compound 0.3162 µM): 0.278
relative viability (NCI-H1793; first compound 1 µM): 0.224
